# Several values for one entry are separate records, joined by “and”; a condition that tells them apart may be missing. Identical values can stand only once.
# Legend:
# Dopaminergic Receptor = assay: Involvement of dopaminergic receptors; assay type: in vivo, mice
# COX-1 = COX-1 (Homo sapiens, UniProt P23219); assay: Cyclooxygenase-1; assay type: biochemical; settings: IC50 COX-1, ±SEM, triplicate
# COX-2 = target: T1, COX-2 (Homo sapiens, UniProt P35354); assay: Cyclooxygenase-2; assay type: biochemical; settings: for IC50: IC50 COX-2, ±SEM, triplicate
# T1 sequence (P35354 18-604): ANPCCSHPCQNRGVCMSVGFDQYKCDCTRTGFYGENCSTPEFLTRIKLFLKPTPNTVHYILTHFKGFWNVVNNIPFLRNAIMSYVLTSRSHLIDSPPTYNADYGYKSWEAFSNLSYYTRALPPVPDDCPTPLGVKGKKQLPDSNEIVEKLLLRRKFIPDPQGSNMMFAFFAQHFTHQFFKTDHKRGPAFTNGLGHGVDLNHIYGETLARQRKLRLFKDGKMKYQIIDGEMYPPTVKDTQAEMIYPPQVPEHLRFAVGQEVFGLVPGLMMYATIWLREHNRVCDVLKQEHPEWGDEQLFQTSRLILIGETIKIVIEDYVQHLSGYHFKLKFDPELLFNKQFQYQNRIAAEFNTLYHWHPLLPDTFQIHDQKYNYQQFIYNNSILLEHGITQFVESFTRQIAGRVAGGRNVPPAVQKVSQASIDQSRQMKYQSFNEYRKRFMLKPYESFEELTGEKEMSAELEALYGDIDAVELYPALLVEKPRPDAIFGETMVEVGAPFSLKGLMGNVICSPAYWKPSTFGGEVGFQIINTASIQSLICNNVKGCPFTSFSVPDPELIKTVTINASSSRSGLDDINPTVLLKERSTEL
# Balb C mice [1] = assay: Formalin-induced paw-licking test
# Balb C mice [2] = assay: Acetic acid induced writhing test; assay type: in vivo; settings: 50 mg/kg
# [3] = system: Alpha-2 Adrenergic Receptor; assay: Involvement of adrenergic receptors; assay type: in vivo, mice
# Balb C mice [4] = assay: Tail immersion; assay type: in vivo
# Balb C mice [5] = assay: Acute toxicity study; assay type: in vivo; settings: I/P, highest tested dose 150 mg/kg, 24 hours
# [6] = haloperidol alone, 1 mg/kg i.p.
# [7] = 10 mg/kg, with naloxone (N, 2 mg/kg s.c.)
# [8] = 25 mg/kg, with naloxone (N, 2 mg/kg s.c.)
# [9] = 50 mg/kg, with naloxone (N, 2 mg/kg s.c.)
# [10] = 25 mg/kg after haloperidol (HL, 1 mg/kg)
# [11] = 50 mg/kg after haloperidol (HL, 1 mg/kg)
# [12] = 25 mg/kg after yohimbine (YH, 1 mg/kg)
# [13] = 50 mg/kg after yohimbine (YH, 1 mg/kg)
# [14] = 5 mg/kg, with naloxone (N, 2 mg/kg s.c.)
# Chain of COX-1 (P23219 24-599): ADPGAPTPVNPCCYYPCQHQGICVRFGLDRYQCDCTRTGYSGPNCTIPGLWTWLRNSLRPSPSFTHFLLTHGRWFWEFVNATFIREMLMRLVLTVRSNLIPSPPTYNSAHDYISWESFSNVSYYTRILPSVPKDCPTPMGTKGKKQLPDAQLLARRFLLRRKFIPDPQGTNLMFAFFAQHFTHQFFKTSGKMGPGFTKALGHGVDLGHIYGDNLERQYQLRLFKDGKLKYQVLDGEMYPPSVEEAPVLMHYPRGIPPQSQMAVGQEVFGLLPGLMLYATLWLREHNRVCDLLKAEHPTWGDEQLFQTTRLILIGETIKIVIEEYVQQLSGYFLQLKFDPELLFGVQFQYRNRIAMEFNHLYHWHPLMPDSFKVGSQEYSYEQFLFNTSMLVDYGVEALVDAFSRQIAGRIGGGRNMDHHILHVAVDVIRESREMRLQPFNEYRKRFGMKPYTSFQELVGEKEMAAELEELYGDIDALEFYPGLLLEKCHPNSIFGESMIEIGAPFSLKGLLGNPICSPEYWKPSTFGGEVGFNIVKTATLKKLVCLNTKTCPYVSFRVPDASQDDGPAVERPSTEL
smiles,measurement,setting,value
"O=C(CCCN1CCC(O)(c2ccc(Cl)cc2)CC1)c1ccc(F)cc1 [Haloperidol, haloperidol, reference compound]",% Activity,Dopaminergic Receptor; [6],17.50±1.28%
same,Writhing,Dopaminergic Receptor; [6],55.78±2.02
"CC(=O)CC(C[N+](=O)[O-])c1ccccc1 (stereo not shown) [Compound 9, 5-nitro-4-phenylpentan-2-one]",IC50,COX-1,67.6 ± 1.02 µM
same,Selectivity Index (SI) (IC50 COX-1/IC50 COX-2),COX-2,0.91
same,IC50,COX-2,73.5 ± 1.38 µM
"COc1ccc2c(c1)c(CC(=O)O)c(C)n2C(=O)c1ccc(Cl)cc1 [Indomethacin, indomethacin, reference compound]",Inhibition (%) 1st Phase,Balb C mice [1]; 10 mg/kg,23.69±3.24%
same,Inhibition (%) 2nd Phase,Balb C mice [1]; 10 mg/kg,74.34±2.86%
same,Licking Time 1st Phase,Balb C mice [1]; 10 mg/kg,38.65 ± 1.37 s
same,Licking Time 2nd Phase,Balb C mice [1]; 10 mg/kg,18.96 ± 1.342 s
same,Inhibition (%) 1st Phase,Balb C mice [1]; [7],11.64±1.20%
same,Licking Time 1st Phase,Balb C mice [1]; [7],44.75 ± 1.76 s
same,Licking Time 2nd Phase,Balb C mice [1]; [7],25.00 ± 1.249 s
O=C(O)Cc1ccccc1Nc1c(Cl)cccc1Cl [diclofenac sodium],Inhibition of writhing,Balb C mice [2]; n=6,85%
same,Inhibition of writhing,"Balb C mice [2]; n=6, listed as diclofenac",84.96%
"COC(=O)[C@@H]1[C@H]2C[C@H]3c4[nH]c5ccccc5c4CCN3C[C@@H]2CC[C@@H]1O [Yohimbine, yohimbine, reference compound]",% Activity,"[3]; yohimbine alone, 1 mg/kg i.p.",15.08±1.15%
same,Writhing,"[3]; yohimbine alone, 1 mg/kg i.p.",57.4±2.02
"CCC[C@](C)(C=O)[C@@H]1CC(=O)N(c2ccccc2)C1=O [Compound 4, (S)-2-((S)-2,5-dioxo-1-phenylpyrrolidin-3-yl)-2-methylpentanal]",Inhibition of writhing,Balb C mice [2]; n=6,52.2%
same,Tail flick Response (%),"Balb C mice [4]; 25 mg/kg i.p., 15 Minutes",11.1%
same,Tail flick Response (%),"Balb C mice [4]; 25 mg/kg i.p., 30 Minutes",14.8%
same,Tail flick Response (%),"Balb C mice [4]; 25 mg/kg i.p., 45 Minutes",16.3%
same,Tail flick Response (%),"Balb C mice [4]; 25 mg/kg i.p., 60 Minutes",18.9%
same,Tail flick Response (%),"Balb C mice [4]; 25 mg/kg i.p., 75 Minutes",29.5%
same,Tail flick Response (%),"Balb C mice [4]; 25 mg/kg i.p., 75 Minutes, listed as Comp 4",29.5%
same,Tail flick Response (%),"Balb C mice [4]; 25 mg/kg i.p., 90 Minutes",19.8%
same,Tail flick Response (%),"Balb C mice [4]; 50 mg/kg i.p., 15 Minutes",14.8%
same,Tail flick Response (%),"Balb C mice [4]; 50 mg/kg i.p., 30 Minutes",22.7%
same,Tail flick Response (%),"Balb C mice [4]; 50 mg/kg i.p., 45 Minutes",33.7%
same,Tail flick Response (%),"Balb C mice [4]; 50 mg/kg i.p., 60 Minutes",42.1%
same,Tail flick Response (%),"Balb C mice [4]; 50 mg/kg i.p., 75 Minutes",53.4%
same,Tail flick Response (%),"Balb C mice [4]; 50 mg/kg i.p., 75 Minutes, listed as Comp 4",53.4%
same,Tail flick Response (%),"Balb C mice [4]; 50 mg/kg i.p., 90 Minutes",46.2%
same,Tail flick Response (%),"Balb C mice [4]; 50 mg/kg i.p., 90 Minutes, listed as Comp 4",46.2%
same,Inhibition (%) 1st Phase,Balb C mice [1]; 25 mg/kg,22.30±0.85%
same,Inhibition (%) 2nd Phase,Balb C mice [1]; 25 mg/kg,38.94±2.88%
same,Licking Time 1st Phase,Balb C mice [1]; 25 mg/kg,39.35 ± 1.231 s
same,Licking Time 2nd Phase,Balb C mice [1]; 25 mg/kg,45.12 ± 1.145 s
same,Inhibition (%) 1st Phase,Balb C mice [1]; [8],17.47±1.89%
same,Inhibition (%) 2nd Phase,Balb C mice [1]; [8],33.76±2.53%
same,Licking Time 1st Phase,Balb C mice [1]; [8],41.80 ± 1.33 s
same,Licking Time 2nd Phase,Balb C mice [1]; [8],48.95 ± 1.40 s
same,Inhibition (%) 1st Phase,Balb C mice [1]; 50 mg/kg,36.16±4.47%
same,Inhibition (%) 2nd Phase,Balb C mice [1]; 50 mg/kg,50.66±3.84%
same,Licking Time 1st Phase,Balb C mice [1]; 50 mg/kg,32.33 ± 1.356 s
same,Licking Time 2nd Phase,Balb C mice [1]; 50 mg/kg,36.45 ± 1.232 s
same,Inhibition (%) 1st Phase,Balb C mice [1]; [9],23.69±1.44%
same,Inhibition (%) 2nd Phase,Balb C mice [1]; [9],42.15±1.43%
same,Licking Time 1st Phase,Balb C mice [1]; [9],38.65 ± 1.25 s
same,Licking Time 2nd Phase,Balb C mice [1]; [9],42.75 ± 1.65 s
same,IC50,COX-1,128 µM
same,Selectivity Index (SI) (IC50 COX-1/IC50 COX-2),COX-2,1.94
same,IC50,COX-2,65 µM and 65.9 µM
same,% Activity,Dopaminergic Receptor; [10],16.52±1.25%
same,Writhing,Dopaminergic Receptor; [10],56.42±1.05
same,% Activity,Dopaminergic Receptor; [11],16.70±1.16%
same,Writhing,Dopaminergic Receptor; [11],56.23±1.05
same,% Activity,[3]; [12],15.58±1.44%
same,Writhing,[3]; [12],57.09±2.20
same,% Activity,[3]; [13],16.08±1.08%
same,Writhing,[3]; [13],56.73±1.05
same,"Acute toxicity (adverse effect, change in body weight, mortality)",Balb C mice [5],safe
"CN1CC[C@]23c4c5ccc(O)c4O[C@H]2[C@@H](O)C=C[C@H]3[C@H]1C5 [Morphine, morphine, reference compound]",Tail flick Response (%),"Balb C mice [4]; 5 mg/kg, 15 Minutes",48.1%
same,Tail flick Response (%),"Balb C mice [4]; 5 mg/kg, 30 Minutes",56.1%
same,Tail flick Response (%),"Balb C mice [4]; 5 mg/kg, 45 Minutes",75%
same,Tail flick Response (%),"Balb C mice [4]; 5 mg/kg, 60 Minutes",85%
same,Tail flick Response (%),"Balb C mice [4]; 5 mg/kg, 75 Minutes",80.2%
same,Tail flick Response (%),"Balb C mice [4]; 5 mg/kg, 75 Minutes, listed as morphine",80.2%
same,Tail flick Response (%),"Balb C mice [4]; 5 mg/kg, 90 Minutes",78.4%
same,Tail flick Response (%),"Balb C mice [4]; 5 mg/kg, 90 Minutes, listed as morphine",78.4%
same,Inhibition (%) 1st Phase,Balb C mice [1]; 5 mg/kg,87.16±3.32%
same,Inhibition (%) 2nd Phase,Balb C mice [1]; 5 mg/kg,96.34±0.66%
same,Licking Time 1st Phase,Balb C mice [1]; 5 mg/kg,6.50 ± 1.153 s
same,Licking Time 2nd Phase,Balb C mice [1]; 5 mg/kg,2.70 ± 1.340 s
same,Inhibition (%) 1st Phase,Balb C mice [1]; [14],2.68±1.20%
same,Inhibition (%) 2nd Phase,Balb C mice [1]; [14],1.44±0.28%
same,Licking Time 1st Phase,Balb C mice [1]; [14],49.29 ± 1.52 s
same,Licking Time 2nd Phase,Balb C mice [1]; [14],72.83 ± 1.152 s

# — article PMC8001115 (Drug Design, Development and Therapy, 2021)
